Assay results published in patent US20260337225A1, “SMALL PEPTIDE AND USE THEREOF IN MUCOSAL REPAIR” (FORREST BIO-PHARM (SHENZHEN) CO., LTD., priority 2022, published 2026).
“And” between values parts separate entries of the source, which are not always exact repeats. Equal values may be shown once. No end group written: not given here.

Key:
[1] = test system: normal human kidney-2 cells (HK-02, HK-2); assay: Nephrotoxicity: cytotoxicity in HK-2 cells by CCK-8 assay; format: cell-based; settings: 10-200 μg/mL, 24 h, in words
Protocol: Referring to the method from a literature (Sinomenine improve diabetic nephropathy by inhibiting fibrosis and regulating the JAK2/STAT3/SOCS1 pathway in streptozotocin-induced diabetic rats. Life Sci. 2021; 265:118855), normal human kidney-2 cells (HK-02, HK-2) (Shanghai Cell Bank) were seeded into 96-well plates and administered with small peptides P1 and P2 at concentrations of 0 μg/mL, 10 μg/mL, 20 μg/mL, 50 μg/mL, 100 μg/mL, and 200 μg/mL. After 24-hour stimulation, the cytotoxicity was assessed by Cell Counting Kit-8 (CCK-8) assay.

[2] = test system: rat model of chronic gastric ulcer; assay: Rat model of chronic gastric ulcer (anhydrous ethanol followed by aspirin); format: in vivo
Protocol: The function of the small peptides obtained in Embodiment 2 was validated in the present embodiment by using a rat model of chronic gastric ulcer.
Control group (model group): A rat model of chronic gastric ulcer model was constructed by intragastric administration of anhydrous ethanol (1 mL/200 g), followed by intragastric administration of 200 mg/kg aspirin 2 h later. The rats were administered with aspirin once daily for 4 days. At day 5, the rats were administered with an equal volume of saline.
Blank group: The rats were administered with an equal volume of saline.
Drug treatment groups: A rat model of chronic gastric ulcer was constructed as above-mentioned. At day 5, the rats were respectively administered with the rice polypeptide mixture (50 mg/kg), small peptide P1 (0.5 mg/kg), or small peptide P2 (0.5 mg/kg) twice daily for 3 days. On day 4, the rats were sacrificed and their gastric necropsy was performed.
Positive control group (omeprazole 2.6 mg/kg): A rat model of chronic gastric ulcer was constructed as above. At day 5, the rats were administered with omeprazole (2.6 mg/kg) twice daily for 3 days. On day 4, The rats were sacrificed and their gastric necropsy was performed.
Each group consisted of 10 rats. After 24 h of modeling, the rats were sacrificed to extract the gastric tissue, for measuring gastric pH, and observing changes in ulcer area via gastric tissue dissection. Liver and kidney tissues were collected for pathological section observation to assess drug safety.

[3] = test system: mouse model of acute gastric ulcer; assay: Mouse model of acute gastric ulcer (anhydrous ethanol); format: in vivo
Protocol: In this embodiment, the function of the small peptides obtained in Embodiment 2 was validated using a mouse model of acute gastric ulcer.
Control group (model group): A mouse mode of acute gastric ulcer was constructed using anhydrous ethanol (0.1 mL/10 g) (referring to the literature of Study on Action of kangfuxin Solution on Experimental Gastric ulcer [J]. Chinese Traditional Patent Medicine, 2001, 23(2): 122-124. DOI: 10.3969/j.issn.1001-1528.). After modeling, the mice were administered with an equal volume of saline.
Blank group: The mice were administered with an equal volume of saline.
Drug treatment groups: A mouse mode of acute gastric ulcer was constructed by treating the mouse with anhydrous ethanol (0.1 mL/10 g). At 2 h, 12 h, and 22 h after modeling, the mice were administered with the rice polypeptide mixture (50 mg/kg) as the mixture group, small peptide P1 (0.5 mg/kg) as the P1 group, and small peptide P2 (0.5 mg/kg) as the P2 group, respectively.
Each group consisted of 8 mice. After 24 h of modeling, the mice were sacrificed, to extract the gastric tissue, and observe changes in bleeding points and ulcer area via gastric tissue dissection.

[4] = test system: Rat liver; assay: Animal safety observation: rat liver injury (serum alaninetransaminase activity); format: in vivo; settings: 14 days; for Alaninetransaminase Activity, Average / Alaninetransaminase Activity: intragastric gavage, rat serum; for Alaninetransaminase Activity, Average: average of 6 rats, saline average P1 35.83333, P2 30.83333; for Alaninetransaminase Activity: individual rats (Rat 1-6)
Protocol: (§1) The rats were administered with the small peptides via intragastric gavage at doses of 500 mg/kg and 1000 mg/kg daily for 14 days. Changes in body weight were recorded. On day 14, the rats were sacrificed to measure alaninetransaminase (ALT) activity and blood urea nitrogen (BUN) levels in rat serum for assessing whether there was hepatotoxicity and nephrotoxicity in rats.

[5] = test system: mucosal repair; assay: Screening of active monomers for mucosal repair effects; settings: repeated experiments and screening; in words
Source text: The inventors observed the active monomers in the polypeptide mixture of Polimi-1 rice variety by mass spectrometry analysis of the polypeptides from various ordinary rice varieties and Polimi-1 rice variety. The small peptides identical to ordinary rice varieties and with high levels in ordinary rice varieties were excluded by a method of exclusion. Finally, the small peptides with higher levels in Polimi-1 rice variety and lower levels in other ordinary rice varieties were selected for further study, as well as those with higher levels in Polimi-1 rice variety and absent in other ordinary rice varieties. Since peptides with molecular weights below 1500 Daltons were extracted from the mixed polypeptide mixture previously obtained, other peptides above this threshold were excluded.

[6] = test system: normal human hepatic parenchymal L-02 cells; assay: Hepatotoxicity: cytotoxicity in L-02 cells by CCK-8 assay; format: cell-based; settings: 10-200 μg/mL, 24 h, in words
Protocol: Referring to the method from a literature (Determination of emodin in L-02 cells and cell culture media with liquid chromatography-mass spectrometry: Application to a cellular toxicokinetic study. J Pharm Biomed Anal. 2012; 71:71-78), normal human hepatic parenchymal L-02 cells (obtained from Shanghai Cell Bank) were seeded into 96-well plates and treated with small peptides P1 and P2 at concentrations of 0 μg/mL, 10 μg/mL, 20 μg/mL, 50 μg/mL, 100 μg/mL, and 200 μg/mL. After 24-hour stimulation, the cytotoxicity was assessed by Cell Counting Kit-8 (CCK-8) assay.

[7] = Animal safety observation: rat body weight; format: in vivo; settings: for Rat body weight: 1000 mg/kg daily, intragastric gavage, individual rats, Rat 1-7 = c1-c7, 1000 mg/kg
Protocol: as §1

[8] = test system: Rat kidney; assay: Animal safety observation: rat kidney injury (serum blood urea nitrogen levels); format: in vivo; settings: 14 days; for Blood Urea Nitrogen Levels: intragastric gavage, rat serum, individual rats (Rat 1-6)
Protocol: as §1

[9] = 500 and 1000 mg/kg daily, rats, in words

For “GASRIIGVDL [Small peptide P1, GASRIIGVDL]”, the “viability of normal human kidney cells HK-02 (HK-2)” value [1] was “no effect”, the nephrotoxicity ([1]; HK-2 cells) was “no nephrotoxicity” and the Ulcer index ([2]; 0.5 mg/kg twice daily for 3 days, 10 rats, ratio of ulcer area to gastric mucosal tissue area, Control group 40.5 ± 5.3) was 5.8 ± 2.5%. The Ulcer inhibition rate ([2]; 0.5 mg/kg twice daily for 3 days, percentage reduction in ulcer area compared to the Control group) was 85.7%, the anti-ulcer effects ([2]; P1, P2 0.5 mg/kg, mixture 50 mg/kg, in words) was “exhibit anti-ulcer effects” and the “P versus Positive control group” value ([2]; anti-ulcer effects compared to omeprazole 2.6 mg/kg, P1, P2 0.5 mg/kg, mixture 50 mg/kg) was over 0.05. For the same sequence, the Ulcer index ([3]; 0.5 mg/kg at 2 h, 12 h and 22 h after modeling, 8 mice, ratio of ulcer area to gastric mucosal tissue area, Control group 58.3 ± 10.1) was 8.2 ± 3.1%, the Ulcer inhibition rate ([3]; 0.5 mg/kg at 2 h, 12 h and 22 h after modeling, percentage reduction in ulcer area compared to the Control group) was 85.9% and the “result compared to the mixture group” value ([3]; 0.5 mg/kg versus mixture 50 mg/kg, in words) was “better results than the mixture in larger dose”. For the same sequence, the anti-ulcer effects ([3]; 0.5 mg/kg, in words) was “excellent anti-ulcer effects”, the “Alaninetransaminase Activity, Average” value ([4]; 500 mg/kg daily) was 27 IU/L and the “Alaninetransaminase Activity” value ([4]; 500 mg/kg daily) was 35 IU/L and 44 IU/L and 20 IU/L and 15 IU/L and 21 IU/L and 27 IU/L. For the same sequence, the “Alaninetransaminase Activity, Average” value ([4]; 1000 mg/kg daily) was 39.83 IU/L, the “Alaninetransaminase Activity” value ([4]; 1000 mg/kg daily) was 32 IU/L and 39 IU/L and 50 IU/L and 27 IU/L and 47 IU/L and 44 IU/L and the hepatotoxicity [4, 9] was “without hepatotoxicity”. For the same sequence, the mucosal repair effects [5] was “found to have mucosal repair effects”, the “viability of normal human liver cells L-02” value [6] was “no effect” and the hepatotoxicity ([6]; L-02 cells) was “no hepatotoxicity”. For the same sequence, the Rat body weight ([7]; Day 1) was 210 g and 214 g and 218 g and 217 g and 216 g (2×) and 213 g, the Rat body weight ([7]; Day 2) was 212 g and 215 g (2×) and 219 g and 220 g and 222 g and 217 g and the Rat body weight ([7]; Day 3) was 212 g and 216 g and 220 g and 221 g and 224 g and 209 g and 218 g. For the same sequence, the Rat body weight ([7]; Day 4) was 214 g and 218 g, the Rat body weight ([7]; Day 5) was 215 g and 220 g (2×) and 224 g and 228 g (2×) and 225 g and the Rat body weight ([7]; Day 6) was 215 g and 227 g and 224 g and 230 g and 229 g and 223 g and 228 g. For the same sequence, the Rat body weight ([7]; Day 7) was 216 g and 228 g and 229 g (2×) and 236 g and 231 g and 224 g, the Rat body weight ([7]; Day 8) was 218 g and 229 g and 232 g and 235 g and 233 g and 228 g and 231 g and the Rat body weight ([7]; Day 9) was 220 g and 229 g and 234 g (2×) and 238 g and 233 g and 230 g. For the same sequence, the Rat body weight ([7]; Day 10) was 225 g and 231 g and 237 g and 239 g and 238 g and 234 g and 236 g, the Rat body weight ([7]; Day 11) was 226 g and 232 g and 238 g and 241 g (2×) and 237 g and 239 g and the Rat body weight ([7]; Day 12) was 227 g and 233 g and 238 g and 243 g (2×) and 244 g and 239 g. The Rat body weight ([7]; Day 13) was 228 g and 235 g and 239 g and 244 g (2×) and 248 g and 240 g, the Rat body weight ([7]; Day 14) was 230 g and 237 g and 240 g and 247 g and 249 g and 243 g (2×) and the Rat body weight ([7]; Day 15) was 235 g and 238 g and 242 g and 248 g and 250 g and 245 g (2×). For the same sequence, the “effects on rat body weight” value ([7]; daily intragastric gavage for 14 days, in words) was “minimal effects”, the “Blood Urea Nitrogen Levels” value ([8]; 500 mg/kg daily) was 25 mg/dL and 39 mg/dL and 29 mg/dL and 33 mg/dL and 36 mg/dL and 37 mg/dL and the “Blood Urea Nitrogen Levels” value ([8]; 1000 mg/kg daily) was 28 mg/dL and 30 mg/dL (2×) and 32 mg/dL and 36 mg/dL and 34 mg/dL. For the same sequence, the nephrotoxicity [8, 9] was “without hepatotoxicity and nephrotoxicity”.
